According to patent US20260234135A1, “CRYSTALLINE FORMS OR SALTS OF A DEUTERATED COMPOUND” (ALEBUND PHARMACEUTICALS (HONG KONG) LIMITED, priority 2023, published 2026):
Values after ≈ are worked out from the molar mass of the structure shown. Like-named read-outs stand apart in the source and are kept apart here.

Assays:
[1] = for HPLC Purity (area %), main peak RRT 1.00 / HPLC Reults of initial (%): listed as Free acid Form B
physchem = conditions: thermodynamic from solid
[2] = Hygroscopicity evaluation by DVS at 25° C.; assay type: physicochemical
Procedure: DVS was measured via a SMS (Surface Measurement Systems) DVS Intrinsic. The relative humidity at 25° C. were calibrated against deliquescence point of LiCl, Mg(NO3)2 and KCl.

[3] = Approximate solubility in single solvents at RT; assay type: physicochemical
Procedure: Approximately 2 mg of sample was added into a 3-mL glass vial. Corresponding solvents were added stepwise (50 μL→50 μL→100 μL→200 μL→600 μL→1000 μL) into the vials until the solids were dissolved visually or a total volume of 2 mL was reached. The ranges of approximate solubility were calculated according to the mass of sample, volume of solvent and observation. Result summarized in Table 3 was used to guide the solvent selection in polymorph screening.

[4] = SGF, 37 °C, simulated gastric fluid
[5] = pH 4.5 (KAc) buffer, 37 °C, pH 4.5, aqueous buffer
[6] = pH 6.8 buffer (K2HPO3 + KH2PO3), 37 °C, pH 6.8, aqueous buffer
[7] = pH 8.0 buffer (K2HPO3 + KH2PO3), 37 °C, pH 8, aqueous buffer

**Q.** With [2H]C([2H])(Cc1nc(-c2ccccc2)oc1C)Oc1ccc(C[C@H](OC)C(=O)O)c2sccc12 [free acid Form B] as the molecule, how does the “Area (%) peak 1, RRT 0.88” value ([1]; 40° C./75% RH, 2 weeks) read?
**A.** 0.20%

**Q.** And the “Area (%) peak 2, RRT 1.00 (main peak)” value ([1]; 40° C./75% RH, 2 weeks)?
**A.** 99.50%

**Q.** And the “Area (%) peak 3, RRT 1.14” value ([1]; 40° C./75% RH, 2 weeks)?
**A.** 0.11%

**Q.** And the “Area (%) peak 4, RRT 1.34” value ([1]; 40° C./75% RH, 2 weeks)?
**A.** 0.20%

**Q.** And the “Area (%) peak 1, RRT 0.88” value ([1]; 40° C./75% RH, 4 weeks)?
**A.** 0.23%

**Q.** What about the “Area (%) peak 2, RRT 1.00 (main peak)” value ([1]; 40° C./75% RH, 4 weeks) of the same molecule?
**A.** 99.47%

**Q.** What about the “Area (%) peak 3, RRT 1.14” value ([1]; 40° C./75% RH, 4 weeks) of the same molecule?
**A.** 0.11%

**Q.** And the “Area (%) peak 4, RRT 1.34” value ([1]; 40° C./75% RH, 4 weeks)?
**A.** 0.19%

**Q.** What about the “Area (%) peak 1, RRT 0.88” value ([1]; 40° C./75% RH, 8 weeks) of the same molecule?
**A.** 0.20%

**Q.** And the “Area (%) peak 2, RRT 1.00 (main peak)” value ([1]; 40° C./75% RH, 8 weeks)?
**A.** 99.52%

**Q.** And the “Area (%) peak 3, RRT 1.14” value ([1]; 40° C./75% RH, 8 weeks)?
**A.** 0.09%

**Q.** And the “Area (%) peak 4, RRT 1.34” value ([1]; 40° C./75% RH, 8 weeks)?
**A.** 0.19%

**Q.** What about the “HPLC Purity (area %), main peak RRT 1.00” value ([1]; 40° C./75% RH/open, 2 weeks) of the same molecule?
**A.** 99.50 area %

**Q.** And the “HPLC Purity (area %), main peak RRT 1.00” value ([1]; 40° C./75% RH/open, 4 weeks)?
**A.** 99.47 area %

**Q.** And the “HPLC Reults of initial (%)” value ([1]; 40° C./75% RH/open, 4 weeks)?
**A.** 100.00%

**Q.** And the “HPLC Purity (area %), main peak RRT 1.00” value ([1]; 40° C./75% RH/open, 8 weeks)?
**A.** 99.52 area %

**Q.** And the “HPLC Reults of initial (%)” value ([1]; 40° C./75% RH/open, 8 weeks)?
**A.** 100.05%

**Q.** And the “Area (%) peak 1, RRT 0.88” value ([1]; 60° C., 2 weeks)?
**A.** 0.20%

**Q.** What about the “Area (%) peak 2, RRT 1.00 (main peak)” value ([1]; 60° C., 2 weeks) of the same molecule?
**A.** 99.49%

**Q.** And the “Area (%) peak 3, RRT 1.14” value ([1]; 60° C., 2 weeks)?
**A.** 0.11%

**Q.** And the “Area (%) peak 4, RRT 1.34” value ([1]; 60° C., 2 weeks)?
**A.** 0.20%

**Q.** And the “Area (%) peak 1, RRT 0.88” value ([1]; 60° C., 4 weeks)?
**A.** 0.22%

**Q.** What about the “Area (%) peak 2, RRT 1.00 (main peak)” value ([1]; 60° C., 4 weeks) of the same molecule?
**A.** 99.47%

**Q.** And the “Area (%) peak 3, RRT 1.14” value ([1]; 60° C., 4 weeks)?
**A.** 0.11%

**Q.** And the “Area (%) peak 4, RRT 1.34” value ([1]; 60° C., 4 weeks)?
**A.** 0.20%

**Q.** What about the “Area (%) peak 1, RRT 0.88” value ([1]; 60° C., 8 weeks) of the same molecule?
**A.** 0.20%

**Q.** And the “Area (%) peak 2, RRT 1.00 (main peak)” value ([1]; 60° C., 8 weeks)?
**A.** 99.51%

**Q.** What about the “Area (%) peak 3, RRT 1.14” value ([1]; 60° C., 8 weeks) of the same molecule?
**A.** 0.10%

**Q.** What about the “Area (%) peak 4, RRT 1.34” value ([1]; 60° C., 8 weeks) of the same molecule?
**A.** 0.20%

**Q.** And the “HPLC Purity (area %), main peak RRT 1.00” value ([1]; 60° C./close, 2 weeks)?
**A.** 99.49 area %

**Q.** What about the “HPLC Purity (area %), main peak RRT 1.00” value ([1]; 60° C./close, 4 weeks) of the same molecule?
**A.** 99.47 area %

**Q.** What about the “HPLC Reults of initial (%)” value ([1]; 60° C./close, 4 weeks) of the same molecule?
**A.** 100.00%

**Q.** And the “HPLC Purity (area %), main peak RRT 1.00” value ([1]; 60° C./close, 8 weeks)?
**A.** 99.51 area %

**Q.** And the “HPLC Reults of initial (%)” value ([1]; 60° C./close, 8 weeks)?
**A.** 100.04%

**Q.** What about the “Area (%) peak 1, RRT 0.88” value ([1]; Initial) of the same molecule?
**A.** 0.23%

**Q.** What about the “Area (%) peak 2, RRT 1.00 (main peak)” value ([1]; Initial) of the same molecule?
**A.** 99.47%

**Q.** And the “Area (%) peak 3, RRT 1.14” value ([1]; Initial)?
**A.** 0.10%

**Q.** What about the “Area (%) peak 4, RRT 1.34” value ([1]; Initial) of the same molecule?
**A.** 0.20%

**Q.** And the “HPLC Purity (area %), main peak RRT 1.00” value ([1]; Initial)?
**A.** 99.47 area %

**Q.** And the solubility at 2 h (physchem; FaSSIF-V2, 37 °C, fassif)?
**A.** 280 µg/mL (≈ 637 µM)

**Q.** What about the solubility at 24 h (physchem; FaSSIF-V2, 37 °C, fassif) of the same molecule?
**A.** 290 µg/mL (≈ 660 µM)

**Q.** What about the solubility at 2 h (physchem; FeSSIF-V2, 37 °C, fessif) of the same molecule?
**A.** 630 µg/mL (≈ 1430 µM)

**Q.** And the solubility at 24 h (physchem; FeSSIF-V2, 37 °C, fessif)?
**A.** 650 µg/mL (≈ 1480 µM)

**Q.** And the solubility at 2 h (physchem; [4])?
**A.** 11 µg/mL (≈ 25 µM)

**Q.** And the solubility at 24 h (physchem; [4])?
**A.** 9.6 µg/mL (≈ 21.8 µM)

**Q.** And the solubility at 2 h (physchem; [5])?
**A.** 0.3 µg/mL (≈ 0.683 µM)

**Q.** And the solubility at 24 h (physchem; [5])?
**A.** 0.4 µg/mL (≈ 0.91 µM)

**Q.** And the solubility at 2 h (physchem; [6])?
**A.** 150 µg/mL

**Q.** What about the solubility at 24 h (physchem; [6]) of the same molecule?
**A.** 170 µg/mL

**Q.** What about the solubility at 2 h (physchem; [7]) of the same molecule?
**A.** 1900 µg/mL

**Q.** What about the solubility at 24 h (physchem; [7]) of the same molecule?
**A.** 1900 µg/mL

**Q.** What about the solubility at 2 h (physchem; water, 37 °C) of the same molecule?
**A.** 36 µg/mL (≈ 81.9 µM)

**Q.** And the Hygroscopicity ([2]; DVS, 25° C.)?
**A.** non-hygroscopic

**Q.** What about the “Water uptake up to 80% RH” value ([2]; DVS, 25° C.) of the same molecule?
**A.** 0.07%

**Q.** And the “Form change after DVS test” value ([2]; XRPD after DVS)?
**A.** No form change

**Q.** What does the source list for [2H]C([2H])(Cc1nc(-c2ccccc2)oc1C)Oc1ccc(C[C@H](OC)C(=O)O)c2sccc12 [AP-303 (818159-01-A)]?
**A.** Solubility ([3]; 1,4-Dioxane): S > 46.0 mg/mL; Solubility ([3]; DMSO): S > 44.0 mg/mL; Solubility ([3]; H2O): S < 1.2 mg/mL; Solubility ([3]; THF): S > 42.0 mg/mL; Solubility ([3]; n-Heptane): S < 1.3 mg/mL
